{"source": "patent EP4810529A1", "about": "“1,1-DICYANOETHYLENE-CONTAINING COMPOSITION, CURED PRODUCT, LAMINATE, AND METHOD FOR PRODUCING 1,1-DICYANOETHYLENE-CONTAINING COMPOSITION” (Kuraray Co., Ltd., priority 2023, dated 2025)", "origin": "cited, not measured here", "details": "logarithmic acid dissociation constant, room temperature, aqueous system, first stage", "data": [{"smiles": "O=[N+]([O-])O", "note": "[nitric acid]", "values": [{"measurement": "pKa", "value": -1.3}]}]}
